Measured values from ChEMBL document CHEMBL2046438, “Indole alkaloids from Geissospermum reticulatum” (J Nat Prod, 2012).
Values after ≈ are worked out from the molar mass of the structure shown. Active and inactive are the calls of the source. No cut-off for these calls is given here.

What was measured:
Leishmania infantum = experiment: Leishmanicidal activity against promastigote form of Leishmania infantum PB75 after 48 hrs by modified colorimetric method; type: functional; conditions: PB75, 48 h
[1] = Cytotoxicity against CHO cells assessed as cell viability after 48 hrs by MTT colorimetric assay; type: cell-based, Cricetulus griseus; conditions: chinese hamster
Trypanosoma cruzi [2] = experiment: Antitrypanosomal activity against epimastigote form of Trypanosoma cruzi Y after 72 hrs by modified MTT colorimetric assay; type: functional
Trypanosoma cruzi [3] = experiment: Antitrypanosomal activity against epimastigote form of Trypanosoma cruzi Y at 1 to 100 ug/ml after 72 hrs by modified MTT colorimetric assay; type: functional, organism-based
CHO = experiment: Cytotoxicity against CHO cells assessed as cell viability at 1 to 100 ug/ml after 48 hrs by MTT colorimetric assay; type: cell-based, Cricetulus griseus; conditions: chinese hamster

SMILES | GI50 (Leishmania infantum) | GI50 at 48 h [1] | further results
COc1cc(O)c2c(c1)[C@]13CCN4CC[C@H](C[C@@H]1N2C(C)=O)C1=CCO[C@]143 | > 100 µg/mL |  | 
COc1ccc2c(c1O)N(C(C)=O)[C@H]1C[C@@H]3CCN(C)CC[C@@]21C(=O)[C@]31O[C@H]1C | > 100 µg/mL |  | 
C[C@@H]1[C@H](O)[C@@H](C)/C=C/C=C/C=C/C=C/C=C/C=C/C=C/[C@H](O[C@@H]2O[C@H](C)[C@@H](O)[C@H](N)[C@@H]2O)C[C@@H]2O[C@](O)(C[C@@H](O)C[C@@H](O)[C@H](O)CC[C@@H](O)C[C@@H](O)CC(=O)O[C@H]1C)C[C@H](O)[C@H]2C(=O)O [AMPHOTERICIN B] |  | 10.3 µg/mL (≈ 11.1 µM) | 
CC1CS(=O)(=O)CCN1/N=C/c1ccc([N+](=O)[O-])o1 (stereo not drawn) [NIFURTIMOX] |  | 13.9 µg/mL (≈ 48.4 µM) | 
CC[C@@]12CCCN3CC[C@]4(c5cccc(O)c5N(C(C)=O)[C@@H]4CC1)[C@H]32 | 7.7 µg/mL (≈ 22.6 µM) | 16.7 µg/mL (≈ 49.1 µM) | GI50 (Trypanosoma cruzi [2]): 41.7 µg/mL (≈ 122 µM)
CCCC(=O)N1c2c(O)cccc2[C@]23CCN4CC[C@H](C[C@H]12)C1=CCO[C@]143 | 52.2 µg/mL (≈ 142 µM) |  | 
C/C=C1\C(=O)[C@@]23CCN(C)CC[C@H]1C[C@@H]2N(C(C)=O)c1c3ccc(OC)c1O | > 100 µg/mL |  | 
CC(=O)N1c2c(O)cccc2[C@]23CCN4CC[C@H](C[C@H]12)C1=CCO[C@]143 [GEISSOSPERMIDINE] | > 100 µg/mL |  | 
C/C=C1/C(=O)[C@@]23CCN(C)CC[C@H]1C[C@@H]2N(C(C)=O)c1c3ccc(OC)c1O | > 100 µg/mL |  | 
CCc1ccc2c3[nH]c4ccccc4c3cc[n+]2c1.[Cl-] [FLAVOPEREIRINE] |  |  | Activity (Trypanosoma cruzi [3]): Active; Activity (CHO): Toxic
